{"source": "patent US20110207760A1", "about": "“SN-38 COMPOSITIONS” (priority 2010, published 2011)", "key": {"[1]": {"assay": "Physical stability of SN-38 in diluted aqueous cyclodextrin solutions (HPLC)", "format": "physicochemical", "conditions": "for Concentration of SN-38 relative to time 0 h: room temperature", "procedure": "Aliquots of the resultant SN-38 composition in aqueous SBECD were diluted 6 times with water, and further diluted with 10% (w/w) aqueous SBECD to obtain samples having a concentration suitable for HPLC analysis. The samples were analyzed by HPLC using column Symmetry Shield C18 3.5 μ, 50×4.6 mm (Waters), water (0.1% TFA)—acetonitrile (0.1% TFA) gradient and UV detection at 225 nm and 260 nm. The concentrations of SN-38 in the samples were determined by comparison of the area under the peak with the results obtained from analysis of standard solutions.\nThe SN-38 solution prepared as in the Example 1 was diluted with water, by weight, to obtain solutions containing respectively 5% SBECD, 10% SBECD, and 20% SBECD. All solutions were kept at room temperature and periodically analyzed by HPLC using the method described in the Example 1.\nA solution of SN-38 in hydroxypropyl beta-cyclodextrin (HPbCD) was prepared using the procedure described in the Example 1. This solution was subsequently diluted with water, by weight, to obtain HPbCD concentration 20%. The relative change of SN-38 concentration in this solution after 70 hours was determined as described above, and is noted in Table 3 below.\nA solution of SN-38 in dimethyl beta-cyclodextrin (DMbCD) was prepared using the procedure described in the Example 1. This solution was subsequently diluted with water, by weight, to obtain DMbCD concentration 20%. The relative change of SN-38 concentration in this solution after 22.5 hours was determined as described above, and is noted in Table 4 below."}, "[2]": {"assay": "Pharmacokinetics of SN-38 and SN-38G after i.v. dosing of SN-38 in 40% SBECD", "format": "in vivo, Female Sprague-Dawley rats", "conditions": "female, Sprague-Dawley, rat, in vivo, iv", "procedure": "Female Sprague-Dawley rats, 4 animals per group received i.v. injections of SN-38 (doses 0.65 mg/kg and 2 mg/kg) in 40% SBECD. The SN-38 solution for the treatment was prepared by the dilution of concentrated composition of the Example 1 with water. The blood plasma samples were collected from each group of animals, extracted using liquid extraction with cold methanol/acetonitrile mixture (1:1 v/v), and analyzed using a HPLC method with fluorescent detection. The results, including levels of SN-38 and SN-38G in plasma and calculated values of area under the curve (AUC) for SN-38 and SN-38G are presented in Tables 5 and 6 below."}, "[3]": {"conditions": "room temperature; cited from earlier work"}, "topoisomerase I enzyme": {"target": "T1, topoisomerase I enzyme (Homo sapiens, UniProt P11387)", "T1 sequence (P11387 1-765)": "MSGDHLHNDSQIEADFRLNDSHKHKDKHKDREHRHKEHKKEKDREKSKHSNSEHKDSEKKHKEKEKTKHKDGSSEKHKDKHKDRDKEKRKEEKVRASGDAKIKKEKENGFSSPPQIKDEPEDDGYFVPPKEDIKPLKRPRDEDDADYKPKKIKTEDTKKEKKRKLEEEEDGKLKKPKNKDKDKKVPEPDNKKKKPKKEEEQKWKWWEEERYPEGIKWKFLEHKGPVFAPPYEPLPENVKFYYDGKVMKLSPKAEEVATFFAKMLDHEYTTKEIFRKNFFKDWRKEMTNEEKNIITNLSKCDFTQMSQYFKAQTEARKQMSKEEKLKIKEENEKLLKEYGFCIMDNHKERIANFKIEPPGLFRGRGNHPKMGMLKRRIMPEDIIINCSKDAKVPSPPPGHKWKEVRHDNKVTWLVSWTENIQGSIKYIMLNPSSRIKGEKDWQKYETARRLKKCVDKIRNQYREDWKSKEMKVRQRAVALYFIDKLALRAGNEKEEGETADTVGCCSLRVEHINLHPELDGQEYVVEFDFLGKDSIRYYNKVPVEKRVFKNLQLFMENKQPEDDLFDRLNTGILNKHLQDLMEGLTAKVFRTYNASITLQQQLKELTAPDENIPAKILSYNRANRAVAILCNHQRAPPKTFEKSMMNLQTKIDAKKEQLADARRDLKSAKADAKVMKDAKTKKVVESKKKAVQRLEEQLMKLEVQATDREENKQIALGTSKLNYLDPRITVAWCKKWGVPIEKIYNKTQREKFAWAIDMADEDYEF", "conditions": "estimated; times more active than irinotecan; cited from earlier work"}}}
{"smiles": "CCc1c2c(nc3ccc(O)cc13)-c1cc3c(c(=O)n1C2)COC(=O)[C@]3(O)CC", "note": "[SN-38, (4S)-4,11-Diethyl-4,9-dihydroxy-1H-pyrano[3′,4′:6,7]indolizino[1,2-b]quinoline-3,14(4H,12H)dione]", "values": [{"measurement": "Concentration of SN-38 relative to time 0 h", "setting": "[1]; 5% SBECD, 0 h", "result": 100.0}, {"measurement": "Concentration of SN-38 relative to time 0 h", "setting": "[1]; 5% SBECD, 5 h", "result": 96.6}, {"measurement": "Concentration of SN-38 relative to time 0 h", "setting": "[1]; 5% SBECD, 23 h", "result": 91.4}, {"measurement": "Concentration of SN-38 relative to time 0 h", "setting": "[1]; 5% SBECD, 47 h", "result": 85.2}, {"measurement": "Concentration of SN-38 relative to time 0 h", "setting": "[1]; 5% SBECD, 71 h", "result": 79.2}, {"measurement": "Concentration of SN-38 relative to time 0 h", "setting": "[1]; 5% SBECD, 98 h", "result": 77.9}, {"measurement": "Concentration of SN-38 relative to time 0 h", "setting": "[1]; 10% SBECD, 0 h", "result": 100.0}, {"measurement": "Concentration of SN-38 relative to time 0 h", "setting": "[1]; 10% SBECD, 5 h", "result": 97.9}, {"measurement": "Concentration of SN-38 relative to time 0 h", "setting": "[1]; 10% SBECD, 23 h", "result": 94.9}, {"measurement": "Concentration of SN-38 relative to time 0 h", "setting": "[1]; 10% SBECD, 47 h", "result": 90.8}, {"measurement": "Concentration of SN-38 relative to time 0 h", "setting": "[1]; 10% SBECD, 71 h", "result": 87.7}, {"measurement": "Concentration of SN-38 relative to time 0 h", "setting": "[1]; 10% SBECD, 98 h", "result": 85.5}, {"measurement": "relative change of SN-38 concentration", "setting": "[1]; 20% DMbCD, 0 h", "result": 100.0}, {"measurement": "relative change of SN-38 concentration", "setting": "[1]; 20% DMbCD, 22.5 h", "result": 42.5}, {"measurement": "relative change of SN-38 concentration", "setting": "[1]; 20% HPbCD, 0 h", "result": 100.0}, {"measurement": "relative change of SN-38 concentration", "setting": "[1]; 20% HPbCD, 70 h", "result": 63.0}, {"measurement": "Concentration of SN-38 relative to time 0 h", "setting": "[1]; 20% SBECD, 0 h", "result": 100.0}, {"measurement": "Concentration of SN-38 relative to time 0 h", "setting": "[1]; 20% SBECD, 5 h", "result": 99.5}, {"measurement": "Concentration of SN-38 relative to time 0 h", "setting": "[1]; 20% SBECD, 23 h", "result": 97.6}, {"measurement": "Concentration of SN-38 relative to time 0 h", "setting": "[1]; 20% SBECD, 47 h", "result": 96.3}, {"measurement": "Concentration of SN-38 relative to time 0 h", "setting": "[1]; 20% SBECD, 71 h", "result": 95.1}, {"measurement": "Concentration of SN-38 relative to time 0 h", "setting": "[1]; 20% SBECD, 98 h", "result": 93.2}, {"measurement": "AUC", "setting": "[2]; 0.65 mg/kg", "result": 106, "unit": "ng·h/mL"}, {"measurement": "Ratio AUC SN-38/SN-38G", "setting": "[2]; 0.65 mg/kg", "result": 0.39}, {"measurement": "concentration at 0.17 h", "setting": "[2]; 0.65 mg/kg", "result": 157, "unit": "ng/mL"}, {"measurement": "concentration at 0.5 h", "setting": "[2]; 0.65 mg/kg", "result": 41.3, "unit": "ng/mL"}, {"measurement": "concentration at 0.75 h", "setting": "[2]; 0.65 mg/kg", "result": 26.1, "unit": "ng/mL"}, {"measurement": "concentration at 1 h", "setting": "[2]; 0.65 mg/kg", "result": 18.2, "unit": "ng/mL"}, {"measurement": "concentration at 3 h", "setting": "[2]; 0.65 mg/kg", "result": 5.8, "unit": "ng/mL"}, {"measurement": "concentration at 6 h", "setting": "[2]; 0.65 mg/kg", "result": 1.2, "unit": "ng/mL"}, {"measurement": "AUC", "setting": "[2]; 2 mg/kg", "result": 323, "unit": "ng·h/mL"}, {"measurement": "concentration at 0.17 h", "setting": "[2]; 2 mg/kg", "result": 625, "unit": "ng/mL"}, {"measurement": "concentration at 0.5 h", "setting": "[2]; 2 mg/kg", "result": 157, "unit": "ng/mL"}, {"measurement": "concentration at 0.75 h", "setting": "[2]; 2 mg/kg", "result": 51.4, "unit": "ng/mL"}, {"measurement": "concentration at 1 h", "setting": "[2]; 2 mg/kg", "result": 29.8, "unit": "ng/mL"}, {"measurement": "concentration at 3 h", "setting": "[2]; 2 mg/kg", "result": 5.5, "unit": "ng/mL"}, {"measurement": "concentration at 6 h", "setting": "[2]; 2 mg/kg", "result": 5.3, "unit": "ng/mL"}, {"measurement": "solubility in water", "setting": "[3]", "result": "about 0.00008 mg/mL"}, {"measurement": "activity relative to irinotecan", "setting": "topoisomerase I enzyme", "result": "up to 1000 times"}]}
